The record followed here is a melting point compilation (Tetko et al.).

Broadly, the melting point is the temperature of the solid-liquid transition.

The compound `CNC(=O)NC` came in with a melting point of 108 °C.
`O=C(c1cccs1)c1nn2c(nc(=O)c3ccccc32)s1` yielded a melting point of 236 °C.
Regarding `CCCCCCCCCCCC(CCCCCCCC)c1ccccc1` (centres undefined), the melting point turned out to be 17.9 °C.
The value for `COc1ccc(CC(=O)O)cc1OCc1ccccc1` was 126 °C.
The value for `CC(=O)N(Nc1ccc(-c2ccc([N+](=O)[O-])cc2)cc1)c1ccccc1` was 161 °C; that for `CCCCOc1ccc(CO)cc1` was 29 to 32 °C; that for `S=c1[nH]ccn1-c1cccc(Cl)c1` was 161 to 163 °C.
Next, `O=C(C(Cl)Cl)C(Cl)(Cl)Cl`: 2.1 °C; `O=C(O)C(=O)CBr`: 79 to 82 °C.
With `N#Cc1ccc([N+](=O)[O-])cc1Cl`, the melting point lay within 83 to 84 °C.
Next, `Nc1cccc2cc(O)ccc12`: 191 °C; `CC(CC(N)=O)n1nc2ccccc2n1` (centres undefined): 152 °C.
`CCOC(=O)C(C#N)=C(SC)SC` yielded a melting point of 70 °C.
`CCC(C(=O)NC(=O)NC(C)=O)c1ccccc1` (centres undefined): the melting point worked out at 100 °C.
Next, `CCCCCCCCCCCCCCCCCCC(C)c1ccccc1` (centres undefined): 29 °C; `O=C(Cl)c1cc2ccccc2s1`: 87 °C; `O=C(O)c1ccc(C(=O)O)c(OC(F)(F)F)c1`: 270 to 272 °C.
The compound `N#Cn1c(N)nc2ccccc21` came in with a melting point of 175 to 177 °C.
Next, `NC(N)=NCCCCCCCCNCCCCCCCCN=C(N)N`: 60 °C; `CN=C(NC)c1cc(C(C)(C)C)c(O)c(C(C)(C)C)c1`: 206 °C; `CC(O)(P(=O)(O)O)P(=O)(O)O`: 199 °C.
Next, `Cn1c(S)nnc1Cc1ccsc1`: 130 to 133 °C; `COc1coc(CSP(=O)(OC)OC)cc1=O`: 96 °C.
Next, `CCCCCCCCOC(C)=O`: -38.5 °C; `CC(C)[C@@H](N)C(=O)O`: 302 to 303 °C; `O=C(O)C1(O)CC1`: 108 to 110 °C.
With `COc1ccc(C(=O)O)cc1OCc1ccccc1`, the melting point turned out to be 180 °C.
Take `[O-][N+](=Nc1cccc(O)c1)c1cccc(O)c1`: the melting point came to 183 °C.
Turning to `ClC(Cl)N(C(Cl)Cl)C(Cl)Cl`, the melting point fell in the range of 170 to 173 °C.
On to `O=[N+]([O-])c1c2c(c([N+](=O)[O-])c3c1CCCN3)NCCC2`, for which the melting point was determined as 187 °C.
In turn, `Brc1ccc2cc[nH]c2c1` displayed a melting point of 92 °C.
Consider `CCF`, for which the melting point was -143 °C.
In turn, `OCc1c2ccccc2cc2ccccc12` showed a melting point of 163 °C.
Next, `Cc1ccc(S(=O)(=O)c2ncsc2SCC(=O)c2ccc(Cl)cc2)cc1`: 212 to 213 °C; `Cc1ccc2cc([N+](=O)[O-])ccc2n1`: 165 to 166 °C; `CNC(=O)Oc1cc(C)c(N(C)C)c(C)c1`: 85 °C.
The value for `CC(CCC(=O)O)C1CCC2C3CCC4CC(O)CCC4(C)C3CCC12C` (centres undefined) was 186 °C.
The value for `c1ccc(Nc2nc3ccccc3[nH]2)nc1` was 257 to 259 °C.
`Cc1ccc(OC2CCC3C4CCC5CC(=O)CCC5(C)C4CCC23C)cc1` (centres undefined): the melting point is 148 to 153 °C.
The value for `Cc1cc([N+]([O-])=Nc2ccccc2)c(C(C)C)cc1[N+]([O-])=Nc1ccccc1` was 127 °C; that for `C[Si](C)(C)C1=CC2(CCCCC2)CC1=O` was 56 °C.
The value for `CCCCF` was -134 °C.
The compound `CC(=O)c1ccc(C(C)=O)cc1` showed a melting point of 112 °C.
Compound `CCCCc1c(C)nc(N(C)C)nc1O` showed a melting point of 102 °C.
Next, `N#Cc1csc2ccc(Cl)cc12`: 121 to 122 °C.
As for `CCNCCO`, the melting point was -6 °C.
Next, `S=C(Oc1ccccn1)Oc1ccccn1`: 96 to 99 °C.
With `CC(=O)c1ccc2c(c1)CCO2`, the melting point lay within 62 to 64 °C.
`NC(CC(=O)O)C1CCCCC1` (centres undefined): the melting point lay within 234 to 235 °C.
In the case of `CC(C=Cc1ccccc1)=NO`, the melting point lay in the range of 116 to 120 °C.
Next, `O=c1c(Cl)c[nH]cc1Cl`: 322 °C; `CCOC(=O)/C(=N\Nc1cc(Cl)ccc1Cl)C(=O)C(F)(F)F`: 146 °C.
`COC(=O)c1ccc(C(=O)OC)c(F)c1` gave a melting point of 82 °C.
The value for `CCOC(=O)c1c(C)oc(NC(=O)Nc2cccc(C(F)(F)F)c2)c1C(=O)OCC` was 153 to 155 °C; that for `CCN1C(=O)C(=Cc2coc3ccc(Cl)cc3c2=O)SC1=S` was 231 to 233 °C.
Next, `C[Si](C)(c1ccccc1)[Si](C)(C)c1ccccc1`: 33 to 38 °C.
Next, `FC(Cl)(Cl)C(Cl)Cl`: -82.6 °C; `CCCCCCCCCCCCCCCCCCCC(=O)OCC`: 50 °C.
`Cc1ccc(N)cc1O` displayed a melting point of 160 to 165 °C.
Next, `Cc1cc(Br)c[nH]c1=O`: 171 to 175 °C; `c1ccc(Cc2ccccc2)cc1`: 25.2 °C; `CCc1ccccc1NC(=O)c1cccc2ccccc12`: 175 °C.
Consider `CC1(C)OC(=O)C(=NNc2ccc(Br)cc2)C(=O)O1`, for which the melting point fell in the range of 259 to 260 °C.
`CCOc1cc(OCC)cc(OCC)c1` returned a melting point of 43.5 °C.
The value for `COC(=O)C1=C(C(=O)OC)CC2=C(CC3=C(C2)CC(C(=O)OC)=C(C(=O)OC)C3)C1` was 260 to 262 °C; that for `CC(CN(C)C)CN1c2ccccc2CCc2ccccc21` (centres undefined) was 45 °C; that for `CCC(OC(N)=O)C1CCCCC1` (centres undefined) was 128 °C.
The value for `CCN(CCO)CCn1c(Cc2ccccc2)nc2c1c(=O)n(C)c(=O)n2C` was 80 °C; that for `Brc1nc(Br)n(Cc2ccccc2)n1` was 60 to 65 °C; that for `NC(=O)c1ccc(C(F)(F)F)nc1O` was 220 to 223 °C.
The value for `Fc1ccc(C=Nc2n[nH]c(N=Cc3ccc(F)cc3)c2Cc2ccc(Cl)cc2)cc1` was 223 to 225 °C; that for `Cc1cc(C)c2c(=O)n(-c3ccc(Br)cc3)c(S)nc2n1` was 335 to 337 °C; that for `CCCCCCCC(=O)Cl` was -63 °C.
In turn, `COC(=O)c1cc([N+](=O)[O-])ccc1SC` returned a melting point of 130 to 132 °C.
Next, `O=C(OCC1OC(Oc2ccccc2CO)C(O)C(O)C1O)c1ccccc1` (centres undefined): 180 °C; `Brc1cccc2cc(C=NNc3ccccc3)ccc12`: 151 °C.
Next, `Cc1noc(C)c1C=O`: 35 to 38 °C; `COc1ccc(-c2ccc(C(=O)O)o2)cc1`: 176 to 178 °C; `COC(=O)c1cc(Cl)c(NC(C)=O)cc1OC`: 155 °C.
The value for `C=C(CCl)CCl` was 14 °C.
Compound `O=[N+]([O-])c1cc(C(O)Cc2ccc3ccccc3n2)ccc1C(O)Cc1ccc2ccccc2n1` (centres undefined) had a melting point of 172 °C.
Take `CCCCCCCCCC(C)CC` (centres undefined): the melting point is -53 °C.
Next, `O=C1OC(Cl)c2ccccc21` (centres undefined): 60 °C; `CCOc1cccc2c(=O)c(=O)c12`: 128 °C; `COc1ccc(OC)c(Cl)c1`: 8.1 °C.
The value for `CC(C)S(=O)(=O)n1c(N)nc2ccc(C(=NO)c3ccccc3)cc21` was 198 °C; that for `Cc1cc(C)c(Cc2cnc(NC3=NCCN3)s2)c(C)c1` was 192 to 194 °C.
Next, `Fc1c(F)c(-c2c(F)c(F)c(Br)c(F)c2F)c(F)c(F)c1Br`: 113 to 115 °C; `CCOC(=O)C(Br)C(C)Br` (centres undefined): 58.5 °C; `O=C1CCC(=O)C1`: 152 °C.
Compound `O=Cc1ccc(O)c(Cl)c1` displayed a melting point of 139 °C.
The value for `CCCCCCCCCCCCCCCCCCCCCCCCCC(=O)OC` was 63.8 °C; that for `CCC(=O)c1cc(C)ccc1O` was 2 °C.
Next, `N#Cc1cc(Cl)cc(Cl)c1N`: 120 to 126 °C.
Next, `CC(C)(C)c1cccc2ccccc12`: -11.3 °C; `FC(F)(Cl)CBr`: -76 °C.
With `CN(C)c1ccc(/C=C/C(=O)CCc2ccccc2)cc1`, the melting point was determined as 93 °C.
The value for `COc1ccccc1CC(=O)O` was 124 °C; that for `Brc1cnc(N2CCCC2)nc1OCc1ccccc1` was 107 °C; that for `CC(=O)c1c2c(c(C(C)=O)c3c1CCCN3)NCCC2` was 143 °C.
Turning to `O=C(C=CC(=O)OCC(F)(F)C(F)(F)C(F)(F)C(F)(F)C(F)(F)C(F)(F)C(F)(F)F)OCC(F)(F)C(F)(F)C(F)(F)C(F)(F)C(F)(F)C(F)(F)C(F)(F)F`, the melting point was 82 to 84 °C.
The value for `O=C(O)c1cc(O)c2cccc(O)c2n1` was 297 to 298 °C; that for `CCCCCCCCCCCCCCCCCCCCBr` was 37.5 °C; that for `CCCCCCCCCCC(=O)OCC(COC(=O)CCCCCCCCCC)OC(=O)CCCCCCCCCC` was 24 to 32 °C.
`Brc1cnc2ccccn12` gave a melting point of 93 °C.
Regarding `COc1cccc2onc(N)c12`, the melting point was in the range of 140 to 142 °C.
The value for `CN(C)c1ccc(C2CC(=O)CC(=O)C2)cc1` was 201 to 204 °C.
As for `N#CCc1nc(-c2ccc(Cl)c(Cl)c2)cs1`, the melting point fell in the range of 106 to 107 °C.
`O=[N+]([O-])/C(Br)=C/c1cccc(/C=C(\Br)[N+](=O)[O-])c1`: the melting point was 153 °C.
Turning to `CC(=O)NC(C)c1ccccc1` (centres undefined), the melting point was 102 to 103 °C.
`CC(C(=O)O)=C(c1ccccc1)c1ccccc1` gave a melting point of 163 °C.
The value for `Nc1cc(C(F)(F)F)cc(Cl)c1N` was 42 to 43 °C; that for `CNc1ccc(C(=O)OC)cc1` was 95 °C; that for `CC(C)(C)C(=O)OCOc1ccccc1C(N)=O` was 95 °C.
